The values that follow come from patent US11641858B2, “Agricultural chemicals” (Redag Crop Protection Ltd, priority 2016, dated 2023).

Assay [1] deals with Phytophthora cinnamomi. The experiment in a line: Amended agar assay (potato dextrose agar), reduction in colony growth. Format: cell-based. The following applies: for EC50: descending test concentrations, 5-fold dilutions typically down to 0.032 ppm, read-out: Phytophthora cinnamomi (EC50); for inhibition of growth at 20 ppm: read-out: % control at 20 ppm. As for the experimental part: (§1) Testing was carried out on potato dextrose agar (PDA) amended with each compound at test concentrations of 20, 4 and 0.8, 0.16 and 0.032 ppm. Amended agar at each test concentration was poured into three replicate 9 cm petri dishes. Each replicate dish was inoculated in the centre with a 5 mm agar plug taken from the leading edge of a culture aged between 2 and 7 days old; the age of the culture was dependant on the growth rate of the pathogen being tested. The test pathogens were Pythium ultimum and Phytophthora cinnamomi. Plates were incubated at 18° C. and the diameter of each colony measured before growth on the fastest growing plate reached the plate edge. This varied between 2 and 7 days depending on the growth rate of test pathogens. The % reduction in colony growth compared to the control was calculated for each test concentration and pathogen combination.
(§2) The results are shown in Table 1 in which * represents an average control of up to 50% at said dosage; ** represents an average control of 50% or greater but less than 80% at said dosage; and *** represents an average control of 80% or greater at said dosage.
(§3) A primary screen was also conducted for a number of other compounds of the invention. The screen was conducted at 20 ppm and the results are provided in Table 2, in which D represents no control detected at this concentration; C represents up to 50% control; B from 50 to 99% control; and A represents a control of greater than 99%.
(§4) Alternatively, or in addition, the same assay was conducted at descending test concentrations with 5-fold dilutions typically down to 0.032 ppm, and an EC50 (the concentration at which 50% control would be achieved) was determined. The results are provided in Table 1 in which G represents an EC50 above 20 ppm, F represents an EC50 of 2-20 ppm and E represents and EC50 less than 2 ppm.

The subject of assay [2] is Pythium ultimum. The assay is described as above. Format: cell-based. As to conditions: for EC50 / inhibition of growth at 20 ppm: Globisporangium ultimum; for EC50: descending test concentrations, 5-fold dilutions typically down to 0.032 ppm, read-out: Pythium ultimum (EC50); for inhibition of growth at 20 ppm: read-out: % control at 20 ppm. As for the experimental part: as §1, §2, §3, §4

Setting [3] is: Pythium ultimum, primary screen at 20 ppm.
[4] abbreviates: Pythium ultimum, dose 0.032 ppm in amended agar.
The mark [5] stands for this setting: Pythium ultimum, dose 0.16 ppm in amended agar.
The mark [6] stands for this setting: Pythium ultimum, dose 0.8 ppm in amended agar.
[7] abbreviates: Pythium ultimum, dose 4 ppm in amended agar.
Where [8] appears, read: Pythium ultimum, dose 20 ppm in amended agar.

Molecules are shown by their SMILES.

As to `CSCC(=O)Nc1cccc(COc2nc3ccccc3n2-c2nnnn2C)n1` [Example 39, N-(6-(((1-(1-methyl-1H-tetrazol-5-yl)-1H-benzo[d]imidazol-2-yl)oxy)methyl)pyridin-2-yl)-2-(methylthio)acetamide], the EC50 in assay [1] and in assay [2] was < 2 µg/mL in each case.

As for `Cn1nnnc1-n1c(OCc2cccc(NC(=O)CCC3CCCC3)n2)nc2ccccc21` [Example 26], the EC50 in assay [1] and in assay [2] was < 2 µg/mL in each case.

Regarding `Cn1nnnc1-n1c(OCc2cccc(NC(=O)C(F)(F)Oc3ccccc3)n2)nc2ccccc21` [Example 1, 2,2-Difluoro-N-(6-(((1-(1-methyl-1H-tetrazol-5-yl)-1H-benzo[d]imidazol-2-yl)oxy)methyl)pyridin-2-yl)-2-phenoxyacetamide], the “control over the tested oomycete fungal plant pathogens (in words)” value in assay [1] (Table 1 doses 0.032-20 ppm, even at low concentrations) is given as “excellent control”; in assay [2] (Pythium ultimum, Table 1 doses 0.032-20 ppm, even at low concentrations), “excellent control”. Besides, the EC50 in assay [1] and in assay [2] was < 2 µg/mL in each case. The “average % control at given dosage” value in assay [1] (dose 0.032 ppm in amended agar), in assay [1] (dose 0.16 ppm in amended agar), in assay [1] (dose 0.8 ppm in amended agar), in assay [1] (dose 4 ppm in amended agar), in assay [1] (dose 20 ppm in amended agar) and in assay [2] (setting [4]) was “*** (an average control of 80% or greater at said dosage)” in each case. For the same molecule, the “average % control at given dosage” value in assay [2] (setting [5]), in assay [2] (setting [6]), in assay [2] (setting [7]) and in assay [2] (setting [8]) was “*** (an average control of 80% or greater at said dosage)” throughout. The “control over the fungal pathogens tested (in words)” value in assay [1] (primary screen at 20 ppm) and in assay [2] (setting [3]) was “excellent control” in each case. Also, the inhibition of growth at 20 ppm in assay [1] (primary screen at 20 ppm) and in assay [2] (setting [3]) was > 99% in each case.

As to `Cn1nnnc1-n1c(OCc2cccc(NC(=O)CC3CCCCC3)n2)nc2ccccc21` [Example 46], the EC50 in assay [1] and in assay [2] was < 2 µg/mL in each case.

On to `CCCC(=O)Nc1cccc(COc2nc3ccccc3n2-c2nnnn2C)n1` [Example 30], for which the EC50 in assay [1] and in assay [2] was < 2 µg/mL throughout.

In the case of `Cn1nnnc1-n1c(OCc2cccc(NC(=O)c3ccc(C#N)cc3)n2)nc2ccccc21` [Example 43], the EC50 in assay [1] and in assay [2] was < 2 µg/mL each time.

For the molecule `CCC(C)C(=O)Nc1cccc(COc2nc3ccccc3n2-c2nnnn2C)n1` (centres unmarked) [Example 51], the EC50 in assay [1] and in assay [2] was < 2 µg/mL each time.

Regarding `CCC(CC)C(=O)Nc1cccc(COc2nc3ccccc3n2-c2nnnn2C)n1` [Example 36], the EC50 in assay [1] and in assay [2] was < 2 µg/mL each time.

As to `Cn1nnnc1-n1c(OCc2cccc(NC(=O)CC3CC3)n2)nc2ccccc21` [Example 40], the EC50 in assay [1] and in assay [2] was < 2 µg/mL in each case.

As to `Cn1nnnc1C(=NOCc1cccc(NC(=O)C(F)(F)Oc2ccccc2)n1)c1ccccc1` [A, reference compound], the “average % control at given dosage” value in assay [1] (dose 0.032 ppm in amended agar), in assay [1] (dose 0.16 ppm in amended agar), in assay [1] (dose 0.8 ppm in amended agar), in assay [1] (dose 4 ppm in amended agar), in assay [1] (dose 20 ppm in amended agar) and in assay [2] (setting [4]) was “*** (an average control of 80% or greater at said dosage)” in each case. Besides, the “average % control at given dosage” value in assay [2] (setting [5]), in assay [2] (setting [6]), in assay [2] (setting [7]) and in assay [2] (setting [8]) was “*** (an average control of 80% or greater at said dosage)” throughout. The inhibition of growth at 20 ppm in assay [1] (primary screen at 20 ppm) and in assay [2] (setting [3]) was > 99% each time.

For `Cn1ccnc1-n1c(OCc2cccc(NC(=O)OC(C)(C)C)n2)nc2ccccc21` [Example 57], the EC50 in assay [1] and in assay [2] was < 2 µg/mL in each case.

`CC(=O)Nc1cccc(COc2nc3ccccc3n2-c2nnnn2C)n1` [Example 10, N-(6-(((1-(1-Methyl-1H-tetrazol-5-yl)-1H-benzo[d]imidazol-2-yl)oxy)methyl)pyridin-2-yl)acetamide]: the inhibition of growth at 20 ppm was in the range of 50 to 99% in assay [1] (primary screen at 20 ppm) and 45 to 55% in assay [2] (setting [3]).

For `COCCC(=O)Nc1cccc(COc2nc3ccccc3n2-c2nnnn2C)n1` [Example 42], the EC50 in assay [1] and in assay [2] was < 2 µg/mL throughout.

For `Cn1nnnc1-n1c(OCc2cccc(NC(=O)C3CCCC3)n2)nc2ccccc21` [Example 23], the EC50 in assay [1] and in assay [2] was < 2 µg/mL throughout.

In the case of `CC(C)COC(=O)Nc1cccc(COc2nc3ccccc3n2-c2nnnn2C)n1` [Example 18], the EC50 in assay [1] and in assay [2] was < 2 µg/mL in each case.

On to `O=C(Nc1cccc(COc2nc3ccccc3n2-c2ccon2)n1)C(F)(F)Oc1ccccc1` [Example 9], for which the EC50 in assay [1] and in assay [2] was > 20 µg/mL each time.

Take `Cc1cccnc1-n1c(OCc2cccc(NC(=O)C(F)(F)Oc3ccccc3)n2)nc2ncccc21` [Example 66]: the EC50 (in general, the concentration that produces a half-maximal response) in assay [1] is > 20 µg/mL. The inhibition of growth at 20 ppm in assay [2] (setting [3]) lay in the range of 50 to 99%.

Regarding `O=C(Nc1cccc(COc2[nH]c3ccccc3c2-c2ncncc2Cl)n1)C(F)(F)Oc1ccccc1` [Example 69, N-(6-(((3-(5-Chloropyrimidin-4-yl)-1H-indol-2-yl)oxy)methyl)pyridin-2-yl)-2,2-difluoro-2-phenoxyacetamide], the EC50 in assay [1] and in assay [2] was > 20 µg/mL throughout.

Regarding `Cn1nnnc1-n1c(OCc2cccc(NC(=O)CC(C)(C)C)n2)nc2ccccc21` [Example 44], the EC50 in assay [1] and in assay [2] was < 2 µg/mL each time.

For `COCC(=O)Nc1cccc(COc2nc3ccccc3n2-c2nnnn2C)n1` [Example 33], the concentration giving a half-maximal response (EC50) in assay [1] and in assay [2] was 2 to 20 µg/mL in each case.

As for `Cn1nnnc1-n1c(OCc2cccc(NC(=O)C3CCCCC3)n2)nc2ccccc21` [Example 35], the EC50 in assay [1] and in assay [2] was < 2 µg/mL in each case.

For `Cn1nnnc1-n1c(OCc2cccc(NC(=O)CCC(C)(C)C)n2)nc2ccccc21` [Example 45], the EC50 in assay [1] and in assay [2] was < 2 µg/mL each time.

`Cc1cccnc1-n1c(OCc2cccc(NC(=O)C(F)(F)Oc3ccccc3)n2)nc2ccccc21` [Example 3]: the EC50 in assay [1] and in assay [2] was < 2 µg/mL throughout. Also, the inhibition of growth at 20 ppm in assay [1] (primary screen at 20 ppm) and in assay [2] (setting [3]) was 50 to 99% each time.

`O=C(Nc1cccc(COc2nc3ccccc3n2-c2ncncc2Cl)n1)C(F)(F)Oc1ccccc1` [Example 64]: the EC50 in assay [1] is < 2 µg/mL. Also, the inhibition of growth at 20 ppm in assay [2] (setting [3]) was > 99%.

As to `Cn1nnnc1-n1c(OCc2cccc(NC(=O)CS(C)(=O)=O)n2)nc2ccccc21` [Example 53, N-(6-(((1-(1-methyl-1H-tetrazol-5-yl)-1H-benzo[d]imidazol-2-yl)oxy)methyl)pyridin-2-yl)-2-(methylsulfonyl)acetamide], the EC50 in assay [1] is < 2 µg/mL; in assay [2], 2 to 20 µg/mL.

Regarding `Cn1nnnc1-n1c(OCc2cccc(NC(=O)OCc3ccccc3)n2)nc2ccccc21` [Example 14], the EC50 in assay [1] and in assay [2] was < 2 µg/mL each time.

Turning to `Cc1nccnc1-n1c(OCc2cccc(NC(=O)C(F)(F)Oc3ccccc3)n2)nc2ccccc21` [Example 56], the EC50 in assay [1] is 2 to 20 µg/mL; in assay [2], < 2 µg/mL.

As to `Cc1cc(-n2c(OCc3cccc(NC(=O)C(F)(F)Oc4ccccc4)n3)nc3ccccc32)sn1` [Example 8], the inhibition of growth at 20 ppm in assay [2] (setting [3]) was < 50%.
